Results on two substances are retold here after patent US11597936B2, “Recombinant Dgkk gene for fragile X syndrome gene therapy” (UNIVERSITE DE STRASBOURG, priority 2016, dated 2023).

The subject of one series is Cos-1 cells. Put plainly: Western blot (anti-HA) of Dgkk constructs in Cos-1 cells, siFmr1 versus siRNA control. Type of series: cell-based. As to conditions: siFmr1 vs siCtrl, HA signal normalized to GAPDH. As to the method: COS cells (ATCC® CRL-1650™) were grown in DMEM supplemented with 10% fetal calf serum, 1 g/l glucose in the presence of antibiotics at 37° C. in 5% CO2. The day before transfection, 4×10^4 cells were plated into 24-well format plates in 500 μl of antibiotic-free medium.
Transfections of sh-RNAs were performed in triplicate with Lipofectamine 2000 (Invitrogen, Carlsbad, Calif.) on 60 000 cells as directed by the manufacturer with 20 pmol of siRNA (Control or On Target plus Smart Pool mouse FMR1, Thermo) in a final volume of 600 μl. Twenty-four hours later, 0.6 μg of a plasmid construction and 20 pmol of shRNA were co-transfected as above. Fourty-eight hours later, cells washed twice in PBS were lysed directly in the loading buffer (100 mM Tris-HCl, pH 6.8, 4% SDS, 30% glycerol, 1.4 M ß-mercaptoethanol, and bromophenol blue) for 3 min at 95° C. Proteins were analyzed on a 10% SDS-polyacrylamide gel and immunoblotted onto PVDF (Millipore) in Tris-glycine-SDS/20% ethanol buffer for 1 h at 200 mA. […]
In a second series of experiments, the inventors aimed to determine which part of the 5′ region of Dgkk is important in the control of Dgkk expression by FMRP. […] Then, as previously described, Cos-1 cells were transfected by these constructs in the presence or absence of Fmr1 siRNA and the expression of the constructs was analyzed by western-blot.

A further series has as its system CA1 pyramidal neurons. Description: Dendritic spine morphology and dynamics in hippocampal organotypic slice cultures. The class given is cell-based, mouse. The text has this:
A short hairpin RNA designed to target Dgkk (shRNA Dgkk, 5′-[…], SEQ ID No: 6) and the selected shRNA-scramble sequence (5′-[…], SEQ ID No: 7) that has no match in silico in the mouse genome, were cloned under the control of the mU6 promoter into a pAAV-MCS derived plasmid expressing enhanced green fluorescent protein (EGFP) under the control of a CMV promoter. Overexpression of Dgkk was achieved by cloning HA-tagged Δ5′reg-Dgkk under the control of the human Synapsin-1 gene promoter replacing EGFP in the control plasmid pENN.AAV.hSynapsin1.EGFP.RBG (provided by the Penn Vector Core at University of Pennsylvania). Recombinant adeno-associated virus serotype 9 (AAV9) co-expressing EGFP and shRNA (AAV9-EGFP-shRNA-Dgkk and control AAV9-EGFP-shRNA-scramble) as well as AAV9 expressing HA-Dgkk or EGFP (AAV9-hSynapsin1-HA-Dgkk and control AAV9-hSynapsin1-EGFP) were generated. AAV production was carried out using the AAV Helper-Free system (Agilent Technologies) with some modifications. AAV9 vectors were generated by triple transfection of 293T/17 cell line using either pAAV-EGFP-shRNA-Dgkk or pAAV-EGFP-shRNA-scramble, pAAV-hSynapsin1-HA-Δ5′reg-Dgkk or pENN.AAV.hSynapsin1.EGFP.RBG together with pAAV2/9 (Penn Vector Core) containing cap genes of AAV serotype 9 and pHelper. Two days after transfection, cells were collected, lysed by three freeze/thaw cycles in dry ice-ethanol and 37° C. baths, further treated with 100 U/ml Benzonase (Novagen) for 30 min at 37° C. and clarified by centrifugation. Viral vectors were purified by iodixanol (Optiprep™, Axis Shield) gradient ultracentrifugation followed by dialysis and concentration against PBS containing 0.5 mM MgCl2 using centrifugal filters (Amicon Ultra-15 100 K). Viral particles were quantified by real time PCR using a linearized standard plasmid pAAV-EGFP.
Hippocampal organotypic slice cultures (400 μm thick) were prepared from postnatal 5-6 day old C57BL/6 Fmr1+/y or its Fmr1−/y littermate mice using a protocol approved by the Geneva veterinary office and maintained under culture conditions as described (De Roo M et al, 2008, Cereb Cortex, 18(1):151-161). Transfection was carried out at DIV7 with a biolistic method (Helios Gene Gun, Bio-Rad) using gold beads coated with mRFP and either pAAV-EGFP-shRNA-Dgkk, pAAV-EGFP-shRNA-scramble, pAAV-hSynapsin1-EGFP or pAAV-hSynapsin1-HA-[…]. Repetitive confocal imaging was performed as previously described (De Roo M et al, 2008, Cereb Cortex, 18(1):151-161). Briefly, dendritic segments of CA1 transfected neurons (30-40 μm in length) were imaged from DIV12 to DIV15 (at 0, 5, 24, 48 and 72 hours) using an Olympus Fluoview 300 system and analysis of the Z-stacked images so obtained was performed using Osirix software.

The mark [1] stands for this setting: versus shRNA-scramble transfected cells.

Turning to “Dgkk-FL: plasmid carrying all mouse Dgkk exons, its 5′UTR, its 3′UTR and a HA tag (SEQ ID No: 8)”, the “reduction of the expression level of the construct when FMRP expression is reduced” value with Cos-1 cells was “about 70%”.

As to “shRNA-Dgkk: short hairpin RNA designed to target Dgkk (SEQ ID No: 6), in pAAV plasmid expressing EGFP (guide GGAATGCACTACTGGTATTCC; shRNA hairpin expressed from pAAV-EGFP vector)”, the spine density entry in the series on CA1 pyramidal neurons (CA1 pyramidal neurons, biolistic transfection) is given as “Absence of changes”. In the series on CA1 pyramidal neurons (setting [1]), the “lost spines per 24 h” value is “Increase”, the multi-head spines result is “Increase”, the mushroom spines result was “decrease” and the “new spine formation per 24 h” value is recorded as “Increase”.
